Key:
[1] = tested on: 1af (DNA, aptamer) ACCTGGGGGAGTATTGCGGAGGAAGGT; experiment: elution from ATP-agarose column; conditions: 300 mM Na+, 5 mM Mg2+; 20 mM MOPS pH 7.4; 3 mM GMP; no elution of aptamer from immobilised ATP
[2] = tested on: 1bf (DNA, aptamer, artificial imidazole 2'-deoxyribonucleoside (Im) replacing C at 3 and G at 25 (Im:Im mispair)) ACCTGGGGGAGTATTGCGGAGGAAGGT; experiment: elution from ATP-agarose column; conditions: 300 mM Na+, 5 mM Mg2+; 20 mM MOPS pH 7.4; 3 mM GMP; no elution of aptamer from immobilised ATP
[3] = tested on: 1cf (DNA, aptamer, artificial imidazole 2'-deoxyribonucleoside (Im) replacing T at 4 and A at 24 (Im:Im mispair)) ACCTGGGGGAGTATTGCGGAGGAAGGT; experiment: elution from ATP-agarose column; conditions: 300 mM Na+, 5 mM Mg2+; 20 mM MOPS pH 7.4; 3 mM GMP; no elution of aptamer from immobilised ATP
[4] = tested on: 1df (DNA, aptamer, artificial imidazole 2'-deoxyribonucleoside (Im) replacing G at 11 and C at 17 (Im:Im mispair)) ACCTGGGGGAGTATTGCGGAGGAAGGT; experiment: elution from ATP-agarose column; conditions: 300 mM Na+, 5 mM Mg2+; 20 mM MOPS pH 7.4; 3 mM GMP; no elution of aptamer from immobilised ATP
[5] = tested on: 1af (DNA, aptamer) ACCTGGGGGAGTATTGCGGAGGAAGGT; experiment: fluorescence, structure-switching strand displacement; conditions: 300 mM Na+, 5 mM Mg2+; 20 mM MOPS pH 7.4, 22 °C; 1 mM AMP; DABCYL strand 1q displaced
[6] = tested on: 1bf (DNA, aptamer, artificial imidazole 2'-deoxyribonucleoside (Im) replacing C at 3 and G at 25 (Im:Im mispair)) ACCTGGGGGAGTATTGCGGAGGAAGGT; experiment: as above; conditions: 300 mM Na+, 5 mM Mg2+; 20 mM MOPS pH 7.4, 22 °C; 1 mM AMP; DABCYL strand 1q displaced
[7] = tested on: 1cf (DNA, aptamer, artificial imidazole 2'-deoxyribonucleoside (Im) replacing T at 4 and A at 24 (Im:Im mispair)) ACCTGGGGGAGTATTGCGGAGGAAGGT; experiment: as above; conditions: 300 mM Na+, 5 mM Mg2+; 20 mM MOPS pH 7.4, 22 °C; 1 mM AMP; DABCYL strand 1q displaced
[8] = tested on: 1df (DNA, aptamer, artificial imidazole 2'-deoxyribonucleoside (Im) replacing G at 11 and C at 17 (Im:Im mispair)) ACCTGGGGGAGTATTGCGGAGGAAGGT; experiment: as above; conditions: 300 mM Na+, 5 mM Mg2+; 20 mM MOPS pH 7.4, 22 °C; 1 mM AMP; DABCYL strand 1q displaced
[9] = tested on: 1a (DNA, aptamer) ACCTGGGGGAGTATTGCGGAGGAAGGT; experiment: fluorescence, structure-switching strand displacement (system B); conditions: 300 mM Na+, 5 mM Mg2+; 20 mM MOPS pH 8.1, 22 °C; 1 mM AMP; strands 2f (fluorescein) and 2q (DABCYL) displaced

binding [1] | binding [2] | binding [3] | binding [4] | binding [5] | binding [6] | binding [7] | binding [8] | binding [9] | Compound
no | no | no | no | – | – | – | – | – | Nc1nc2c(ncn2[C@@H]2O[C@H](COP(=O)(O)O)[C@@H](O)[C@H]2O)c(=O)[nH]1
– | – | – | – | yes | yes | yes | weak | yes | Nc1ncnc2c1ncn2[C@@H]1O[C@H](COP(=O)(O)O)[C@@H](O)[C@H]1O

From PMC7705865 (2020)
